{"source": "patent US7667036B2", "about": "“Pyrazolo[1,5-a]pyrimidine derivatives” (Teijin Pharma Limited, priority 2004, dated 2010)", "data": [{"molecular_target": "MAPKAP-K2 (Homo sapiens, UniProt P49137)", "sequence (P49137 whole entry)": "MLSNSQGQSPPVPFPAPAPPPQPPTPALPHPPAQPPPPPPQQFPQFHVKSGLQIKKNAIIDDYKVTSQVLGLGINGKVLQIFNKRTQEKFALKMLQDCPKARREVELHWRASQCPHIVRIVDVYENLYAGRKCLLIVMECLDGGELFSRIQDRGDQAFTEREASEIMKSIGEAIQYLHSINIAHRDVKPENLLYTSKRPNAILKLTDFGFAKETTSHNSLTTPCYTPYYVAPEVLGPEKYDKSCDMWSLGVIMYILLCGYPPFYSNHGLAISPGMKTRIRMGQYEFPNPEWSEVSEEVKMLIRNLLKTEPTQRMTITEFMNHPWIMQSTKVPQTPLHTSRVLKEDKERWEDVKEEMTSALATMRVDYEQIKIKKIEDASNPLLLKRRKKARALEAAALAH", "assay": "MAPKAP-K2 enzyme activity inhibition assay, Method B (33P-ATP, MultiScreen-PH plate)", "type": "biochemical", "details": "recombinant human MAPKAP-K2, 0.5% DMSO, 30 min room temperature, read-out: Inhibitory activity (MAPKAP-K2 IC50 class)", "experimental": "The assay of inhibitory activity was performed according to Method A described below for Compound No. 1, 2, 3, 4, 20, 21, 22, 23, 24, 25, 26, 79, 80 and 81, and Method B described below for the other compounds.\nA compound was dissolved in […] to make its concentration to 20 mmol/L, and the resultant solution was stored at −20° C. The stock solution was sequentially diluted with DMSO to prepare a solution having a 200-fold concentration of the required range. Further the solution was diluted with water to 1:20 to prepare a solution having a 10-fold concentration of the required range, and an aliquot of 5 μL of each solution was used for every reaction with 50 μL. During the continuous dilution of all compounds, the final DMSO concentration was maintained at 0.5%. Compounds were routinely tested at a final concentration ranging from 100 μmol/L to 0.03 μmol/L, but were sometimes tested at a lower concentration depending upon their activity.\nThe reaction was initiated by adding 25 μL of a peptide substrate solution [60 μmol/L substrate peptide, 20 μmol/L ATP, 50 mmol/L Tris buffer (pH 7.5), 0.1 mmol/L EGTA, 0.1% β-mercaptoetanol, 20 mmol/L magnesium acetate, and 0.1 μCi [γ-33P]ATP (specific radio activity: approximately 110 TBq/mmol)] to 5 μL of a 5% DMSO solution of the test compound and subsequently adding 20 μL of a MAPKAP-K2 enzyme solution [10 mU recombinant human MAPKAP-K2, 50 mmol/L Tris buffer (pH 7.5), 0.1 mmol/L EGTA, 0.1% β-mercaptoethanol, 0.1% BSA]. After performing the reaction for 30 min at room temperature, an equivalent volume of 200 mmol/L phosphoric acid solution was added to terminate the reaction. Subsequently, 90 μL of the reaction product was adsorbed on a MultiScreen-PH Plate (Millipore) and then rinsed with 100 mmol/L phosphoric acid solution. After drying the plate, 30 μL of MicroScint-O (Packard BioScience) was added, and further the count per minute was measured by a scintillation counter to determine the inhibitory activity. The substrate peptide was Lys-Lys-Leu-Asn-Arg-Tlr-Leu-Ser-Val-Ala.\n• % Control=(X−B)/(Tot−B)×100 • % Inhibition=100—% Control • X=count per minute of a test compound well • B=count per minute of a well without containing enzyme • Tot=count per minute of a well with DMSO solvent only, without containing the test compound (MAPKAP-K2 inhibitory activity) • IC50 value=the compound concentration at 50% inhibition", "units": {"IC50": "µM"}, "values": [{"smiles": "CCOc1ccc(Nc2c(C)c(O[C@@H]3CNCC[C@H]3CC(=O)N(C)C)nc3ccnn23)cc1", "note": "[compound 84]", "IC50": "2 to 20"}, {"smiles": "Cc1c(O[C@H]2CC[C@@H](N)CC2)nc2ccnn2c1Nc1ccc(C(=O)c2ccccc2)cc1", "note": "[compound 70]", "IC50": "≤ 2"}, {"smiles": "C=CCc1c(O[C@H]2CC[C@@H](N)CC2)nc2ccnn2c1Nc1ccc(F)c(Cl)c1", "note": "[compound 12]", "IC50": "2 to 20"}, {"smiles": "CCn1c2ccccc2c2cc(Nc3c(C)c(O[C@H]4CC[C@@H](N)CC4)nc4ccnn34)ccc21", "note": "[compound 65]", "IC50": "≤ 2"}, {"smiles": "CCOc1ccc(Nc2c(C)c(O[C@@H]3CC[C@H](C)NC3)nc3ccnn23)cc1", "note": "[compound 18]", "IC50": "20 to 100"}, {"smiles": "CCOc1ccc(Nc2c(C)c(O[C@@H]3CNCC[C@H]3CCO)nc3ccnn23)cc1", "note": "[compound 27]", "IC50": "≤ 2"}, {"smiles": "CCOc1ccc(Nc2c(C)c(O[C@@H]3CNCC[C@H]3CC(=O)NC)nc3ccnn23)cc1", "note": "[compound 83]", "IC50": "2 to 20"}, {"smiles": "Cc1c(OC2CCCNC2)nc2ccnn2c1Nc1cccc(NS(C)(=O)=O)c1", "note": "(stereo not shown) [compound 48]", "IC50": "2 to 20"}, {"smiles": "Cc1c(O[C@H]2CC[C@@H](N)CC2)nc2ccnn2c1NC1CCCC1", "note": "[compound 271]", "IC50": "2 to 20"}, {"smiles": "CCOc1ccc(Nc2c(C)c(O[C@@H]3CCNC3)nc3ccnn23)cc1", "note": "[compound 264]", "IC50": "20 to 100"}, {"smiles": "Cc1c(O[C@H]2CC[C@@H](N)CC2)nc2ccnn2c1Nc1ccc(O)cc1", "note": "[compound 78]", "IC50": "≤ 2"}, {"smiles": "Cc1c(OC2CCCNC2)nc2ccnn2c1Nc1ccc(OC(F)(F)F)c(Cl)c1", "note": "(stereo not shown) [compound 57]", "IC50": "2 to 20"}, {"smiles": "CCOc1ccc(Nc2c(C)c(OCC(C)N)nc3ccnn23)cc1", "note": "(stereo not shown) [compound 33]", "IC50": "20 to 100"}, {"smiles": "CCOc1ccc(Nc2c(C)c(OC(CN)c3ccccc3)nc3ccnn23)cc1", "note": "(stereo not shown) [compound 31]", "IC50": "20 to 100"}, {"smiles": "Cc1c(OC2CCCNC2)nc2ccnn2c1Nc1ccc(C(=O)c2ccccc2)cc1", "note": "(stereo not shown) [compound 51]", "IC50": "2 to 20"}, {"smiles": "CCOc1ccc(Nc2c(CCCO)c(O[C@H]3CC[C@H](N)CC3)nc3ccnn23)cc1", "note": "[Compound No. 88, 3-[5-(trans-4-aminocyclohexyloxy)-7-(4-ethoxyphenylamino)-pyrazolo [1,5-a]pyrimidin-6-yl]propan-1-ol]", "IC50": "≤ 2"}, {"smiles": "CCn1c2ccccc2c2cc(Nc3c(C)c(OC4CCCNC4)nc4ccnn34)ccc21", "note": "(stereo not shown) [compound 56]", "IC50": "2 to 20"}, {"smiles": "CCOc1ccc(Nc2c(C)c(OCCN)nc3ccnn23)cc1", "note": "[compound 28]", "IC50": "20 to 100"}, {"smiles": "CCOc1ccc(Nc2c(C)c(OC3CCCNC3)nc3ccnn23)cc1", "note": "(stereo not drawn) [Compound No. 5, (dl)-(4-ethoxyphenyl)-[6-methyl-5-(pyperdin-3-yloxy)pyrazolo [1,5-a]pyrimidin-7-yl]-amine]", "IC50": "2 to 20"}, {"smiles": "Cc1c(OC2CCCNC2)nc2ccnn2c1NC1CCCC1", "note": "(stereo not shown) [compound 272]", "IC50": "2 to 20"}, {"smiles": "c1ccc(COc2ccc(Nc3c(-c4ccccc4)c(OC4CCCNC4)nc4ccnn34)cc2)cc1", "note": "(stereo not shown) [compound 275]", "IC50": "2 to 20"}, {"smiles": "CCOc1ccc(Nc2c(C)c(OCC3CCCCN3)nc3ccnn23)cc1", "note": "(stereo not shown) [compound 245]", "IC50": "20 to 100"}, {"smiles": "CCOc1ccc(Nc2c(C)c(OCCCN)nc3ccnn23)cc1", "note": "[compound 29]", "IC50": "20 to 100"}, {"smiles": "Cc1c(O[C@H]2CC[C@@H](N)CC2)nc2ccnn2c1Nc1ccc(OCCN2CCOCC2)cc1", "note": "[compound 90]", "IC50": "≤ 2"}, {"smiles": "CCOc1ccc(Nc2c(C)c(OC3CNCCC3CO)nc3ccnn23)cc1", "note": "(stereo not shown) [compound 58]", "IC50": "2 to 20"}, {"smiles": "CCOc1ccc(Nc2c(C)c(O[C@H]3CNCC[C@@H]3CCO)nc3ccnn23)cc1", "note": "[compound 41]", "IC50": "≤ 2"}, {"smiles": "COc1cc(Nc2c(C)c(OC3CCCNC3)nc3ccnn23)cc(OC)c1", "note": "(stereo not shown) [compound 50]", "IC50": "20 to 100"}, {"smiles": "CCOc1ccc(Nc2c(C)c(O[C@@H]3CC[C@@H](C)NC3)nc3ccnn23)cc1", "note": "[compound 17]", "IC50": "2 to 20"}, {"smiles": "CCOc1ccc(Nc2c(C)c(OC[C@@H]3CCCN3)nc3ccnn23)cc1", "note": "[compound 261]", "IC50": "20 to 100"}, {"smiles": "Cc1c(OC2CCCNC2)nc2ccnn2c1Nc1ccc(C#N)c(C(F)(F)F)c1", "note": "(stereo not shown) [compound 53]", "IC50": "20 to 100"}, {"smiles": "CCOc1ccc(Nc2c(C)c(OCCNC)nc3ccnn23)cc1", "note": "[compound 263]", "IC50": "20 to 100"}, {"smiles": "CCOc1ccc(Nc2c(C)c(OC[C@H]3CCCN3)nc3ccnn23)cc1", "note": "[compound 260]", "IC50": "20 to 100"}, {"smiles": "Cc1c(O[C@H]2CC[C@@H](N)CC2)nc2ccnn2c1Nc1ccc(OCc2ccccc2)cc1", "note": "[compound 76]", "IC50": "≤ 2"}, {"smiles": "CCOc1ccc(Nc2c(C)c(O[C@@H]3CNCC[C@H]3CC(=O)NC3CC3)nc3ccnn23)cc1", "note": "[compound 86]", "IC50": "2 to 20"}, {"smiles": "COc1ccc(Cl)cc1Nc1c(C)c(OC2CCCNC2)nc2ccnn12", "note": "(stereo not shown) [compound 55]", "IC50": "20 to 100"}, {"smiles": "CCOc1ccc(Nc2c(C)c(OC(CN)CN)nc3ccnn23)cc1", "note": "[compound 42]", "IC50": "20 to 100"}, {"smiles": "CSc1nc2ccc(Nc3c(C)c(O[C@H]4CC[C@@H](N)CC4)nc4ccnn34)cc2s1", "note": "[compound 46]", "IC50": "≤ 2"}, {"smiles": "Cc1c(O[C@H]2CC[C@@H](N)CC2)nc2ccnn2c1Nc1ccc2nc(SC(C)C)sc2c1", "note": "[compound 75]", "IC50": "≤ 2"}, {"smiles": "Cc1c(O[C@H]2CC[C@@H](N)CC2)nc2ccnn2c1NCc1ccccc1", "note": "[compound 268]", "IC50": "2 to 20"}, {"smiles": "Cc1c(OC2CCCNC2)nc2ccnn2c1Nc1ccc(S(=O)(=O)N2CCOCC2)cc1", "note": "(stereo not shown) [compound 61]", "IC50": "2 to 20"}, {"smiles": "CCOc1ccc(Nc2c(C)c(O[C@@H]3CNCC[C@H]3CC(=O)NCc3ccccc3)nc3ccnn23)cc1", "note": "[compound 85]", "IC50": "2 to 20"}, {"smiles": "CCOc1ccc(Nc2c(C)c(OC3CCN(C)CC3)nc3ccnn23)cc1", "note": "[compound 253]", "IC50": "2 to 20"}, {"smiles": "Cc1c(OC2CCCNC2)nc2ccnn2c1Nc1ccc(Cc2ccccc2)cc1", "note": "(stereo not shown) [compound 52]", "IC50": "2 to 20"}, {"smiles": "CCc1c(O[C@H]2CC[C@@H](N)CC2)nc2ccnn2c1Nc1ccc(I)cc1", "note": "[compound 102]", "IC50": "≤ 2"}, {"smiles": "N[C@H]1CC[C@@H](Oc2cc(Nc3ccc(F)c(Cl)c3)n3ncc(I)c3n2)CC1", "note": "[compound 19]", "IC50": "20 to 100"}, {"smiles": "Cc1c(OCCN)nc2ccnn2c1NCc1ccccc1", "note": "[compound 270]", "IC50": "20 to 100"}, {"smiles": "CCOc1ccc(Nc2c(C)c(OC3CCNCC3)nc3ccnn23)cc1", "note": "[compound 239]", "IC50": "≤ 2"}, {"smiles": "CCOc1ccc(Nc2c(C)c(OCCCCN)nc3ccnn23)cc1", "note": "[compound 30]", "IC50": "2 to 20"}, {"smiles": "CCOc1ccc(Nc2c(C)c(OCC3(N)CCCC3)nc3ccnn23)cc1", "note": "[compound 40]", "IC50": "20 to 100"}, {"smiles": "Cc1c(OC2CCCNC2)nc2ccnn2c1Nc1ccc(SC(F)(F)F)cc1", "note": "(stereo not shown) [compound 54]", "IC50": "2 to 20"}, {"smiles": "Cc1c(OC2CCCNC2)nc2ccnn2c1Nc1cc(OC2CCCNC2)c(C#N)cc1F", "note": "(stereo not shown) [compound 49]", "IC50": "20 to 100"}, {"smiles": "Cc1c(O[C@H]2CC[C@H](N)CC2)nc2ccnn2c1Nc1ccc(OCCOCc2ccccc2)cc1", "note": "[Compound No. 91, [5-(trans-4-aminocyclohexyloxy)-6-methylpyrazolo[1,5-a]pyrimidin-7-yl]-[4-(2-benzyloxyethoxy)phenyl]-amine]", "IC50": "≤ 2"}, {"smiles": "COc1ccc(Nc2ccc(Nc3c(C)c(O[C@H]4CC[C@@H](N)CC4)nc4ccnn34)cc2)cc1", "note": "[compound 66]", "IC50": "≤ 2"}, {"smiles": "CCc1c(O[C@H]2CC[C@@H](N)CC2)nc2ccnn2c1Nc1ccccc1F", "note": "[compound 9]", "IC50": "2 to 20"}, {"smiles": "CCOc1ccc(Nc2c(-c3ccccc3)c(OCCN)nc3ccnn23)cc1", "note": "[compound 273]", "IC50": "20 to 100"}, {"smiles": "CCC[C@@H]1CCNC[C@H]1Oc1nc2ccnn2c(Nc2ccc(OCC)cc2)c1C", "note": "(racemic) [Compound No. 16, (dl)-(4-ethoxyphenyl)-[6-methyl-5-(trans-4-propylpiperidin-3-yloxy)pyrazolo[1,5-a]pyrimidin-7-yl]amine]", "IC50": "2 to 20"}, {"smiles": "Cc1ccc2nc(-c3ccc(Nc4c(C)c(OC5CCCNC5)nc5ccnn45)cc3)sc2c1", "note": "(stereo not shown) [compound 60]", "IC50": "≤ 2"}, {"smiles": "COC(=O)c1ccc(Nc2c(C)c(O[C@H]3CC[C@@H](N)CC3)nc3ccnn23)cc1", "note": "[compound 67]", "IC50": "20 to 100"}, {"smiles": "Cc1c(O[C@H]2CC[C@@H](N)CC2)nc2ccnn2c1Nc1ccc(I)cc1", "note": "[compound 77]", "IC50": "≤ 2"}, {"smiles": "CCOc1ccc(Nc2c(C)c(OCC(N)(CO)CO)nc3ccnn23)cc1", "note": "[compound 43]", "IC50": "20 to 100"}, {"smiles": "CCOc1ccc(Nc2c(C)c(O[C@@H]3CNCC[C@H]3CC(N)=O)nc3ccnn23)cc1", "note": "(racemic) [Compound No. 82, (dl)-trans-2-{3-[7-(4-ethoxyphenyamino)-6-methylpyrazolo[1,5-a]pyrimidin-5-yloxyl-p]peridin-4-yl}acetamide]", "IC50": "2 to 20"}, {"smiles": "CCOc1ccc(Nc2c(C)c(OCC(N)CC)nc3ccnn23)cc1", "note": "(stereo not shown) [compound 36]", "IC50": "20 to 100"}, {"smiles": "N[C@H]1CC[C@@H](Oc2nc3ccnn3c(Nc3ccc(OCc4ccccc4)cc3)c2-c2ccccc2)CC1", "note": "[compound 274]", "IC50": "2 to 20"}, {"smiles": "CCOc1ccc(Nc2c(C)c(OC3CCN(C)C3)nc3ccnn23)cc1", "note": "(stereo not shown) [compound 256]", "IC50": "20 to 100"}]}]}
